Consider four compounds from patent US9029544B2, “Tricyclic pyridine derivatives, medicaments containing such compounds, their use and process for their preparation” (Boehringer Ingelheim International GmbH, priority 2010, dated 2015).

pIC50: −log10 of the molar value.

The assay concerns the target T1, Recombinant human CETP (Homo sapiens, UniProt P11597).
T1 construct: made in house; host or cells: CHO cells (secreted into conditioned medium)
T1 sequence (P11597 18-493): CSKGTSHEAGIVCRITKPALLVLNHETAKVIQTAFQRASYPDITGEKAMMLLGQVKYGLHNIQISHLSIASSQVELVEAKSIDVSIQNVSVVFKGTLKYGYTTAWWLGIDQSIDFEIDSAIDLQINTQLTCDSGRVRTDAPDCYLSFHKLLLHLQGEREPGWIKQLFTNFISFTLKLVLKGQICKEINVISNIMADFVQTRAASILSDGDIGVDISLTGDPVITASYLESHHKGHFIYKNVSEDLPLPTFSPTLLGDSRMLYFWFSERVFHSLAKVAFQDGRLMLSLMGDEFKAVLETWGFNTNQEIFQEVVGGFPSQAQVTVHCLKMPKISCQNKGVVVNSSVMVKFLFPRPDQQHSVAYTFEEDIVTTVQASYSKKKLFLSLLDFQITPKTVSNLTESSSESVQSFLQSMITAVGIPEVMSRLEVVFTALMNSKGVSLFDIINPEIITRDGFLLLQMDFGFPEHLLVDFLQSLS
Description: CETP in vitro assay (fluorometric assay, Roar Biomedical; cholesterol ester transfer from HDL to LDL). The class given is biochemical. The conditions noted are these: recombinant human CETP from CHO cells; 3 hours at 37° C.; fluorescence 485/535 nm; compound concentrations between 1 nM and 30 μM; read-out: IC50 values for inhibition of CETP. An outline of the steps: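 Fluorometric transfer assay using donor and acceptor particles with recombinant human CETP partially purified from conditioned medium of CETP-expressing CHO cells. Compound in DMSO incubated 3 hours at 37° C; fluorescence Ex 485/Em 535 nm. IC50 from dose-effect curves over 1 nM to 30 μM.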
The term pIC50 denotes −log10 of the IC50, conventionally taken in molar units. Consider `O[C@H]1CC2(CCC2)[C@@H](O)c2nc(C3CCOCC3)c3c(c21)C1(CCOCC1)O[C@@H]3c1ccc(C(F)(F)F)cn1` [6(1), (3S,6R,9S)-7,7-(propan-1,3-diyl)-4-(tetrahydro-2H-pyran-4-yl)-3-(5-(trifluoromethyl)pyridin-2-yl)-2′,3′,5′,6,6′,7,8,9-octahydro-3H-spiro[furo[3,4-c]quinoline-1,4′-pyran]-6,9-diol], for which the pIC50 was 5.92.
Take `CC1(C)C[C@H](O)c2c(nc(C3CCOCC3)c3c2C2(CCOCC2)O[C@@H]3c2ccc(C(F)(F)F)nc2)[C@@H]1O` [6(2), (3R,6R,9S)-7,7-dimethyl-4-(tetrahydro-2H-pyran-4-yl)-3-(6-(trifluoromethyl)pyridin-3-yl)-2′,3′,5′,6,6′,7,8,9-octahydro-3H-spiro[furo[3,4-c]quinoline-1,4′-pyran]-6,9-diol]: the pIC50 was 5.81.
As for `CC(C)c1nc2c(c3c1[C@@H](c1ccc(C(F)(F)F)nc1)OC31CCOCC1)[C@@H](O)CC1(CCC1)[C@H]2O` [Example 5, (3R,6R,9S)-4-isopropyl-7,7-(propan-1,3-diyl)-3-(6-(trifluoromethyl)pyridin-3-yl)-2′,3′,5′,6,6′,7,8,9-octahydro-3H-spiro[furo[3,4-c]quinoline-1,4′-pyran]-6,9-diol], the negative-log IC50 (pIC50) was 7.89.
`CC(C)c1nc2c(c3c1[C@@H](c1ccc(C(F)(F)F)cc1F)OC31CCOCC1)[C@@H](O)CC(C)(C)[C@@H]2O` [Example 6, (3S,6S,9S)-3-(2-fluoro-4-(trifluoromethyl)phenyl)-4-isopropyl-7,7-dimethyl-2′,3′,5′,6,6′,7,8,9-octahydro-3H-spiro[furo[3,4-c]quinoline-1,4′-pyran]-6,9-diol]: the pIC50 was 6.39.
